Measurements from the supplement of paper PMC8671470.
± gives the standard deviation of the averaged measurements.

System: HL-60
Assay: cell viability (% survival relative to DMSO control); higher = less cytotoxic
Settings: 72 h
Method in brief: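 HL-60 cells grown in RPMI 1640 with 10% FBS were rescreened against the full library in 384-well plates, in duplicate, at five tenfold concentrations from 1 to 10,000 nM, alongside DMSO or 100 nM of one of three metabolic inhibitors for 72 h at 37 °C, 5% CO2. Reference wells contained DMSO or 10 μM proteasome inhibitor. Viability was read with CellTiter-Glo and normalised to these reference wells, and where reported, area under the curve was taken from four-parameter log-logistic fits in drc and PharmacoGx.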

[1] = 0.001 µM, co-treatment: AZD3965 100 nM
[2] = 0.001 µM, co-treatment: DMSO vehicle
[3] = 0.001 µM, co-treatment: GSK2194069 100 nM
[4] = 0.001 µM, co-treatment: pictilisib 100 nM
[5] = 0.01 µM, co-treatment: AZD3965 100 nM
[6] = 0.01 µM, co-treatment: DMSO vehicle
[7] = 0.01 µM, co-treatment: GSK2194069 100 nM
[8] = 0.01 µM, co-treatment: pictilisib 100 nM
[9] = 0.1 µM, co-treatment: AZD3965 100 nM
[10] = 0.1 µM, co-treatment: DMSO vehicle
[11] = 0.1 µM, co-treatment: GSK2194069 100 nM
[12] = 0.1 µM, co-treatment: pictilisib 100 nM
[13] = 1 µM, co-treatment: AZD3965 100 nM
[14] = 1 µM, co-treatment: DMSO vehicle
[15] = 1 µM, co-treatment: GSK2194069 100 nM
[16] = 1 µM, co-treatment: pictilisib 100 nM
[17] = 10 µM, co-treatment: AZD3965 100 nM
[18] = 10 µM, co-treatment: DMSO vehicle
[19] = 10 µM, co-treatment: GSK2194069 100 nM
[20] = 10 µM, co-treatment: pictilisib 100 nM

COc1cc2c(NC3CCN(C)CC3)nc(N3CCCN(C)CC3)nc2cc1OCCCN(C)C [UNC0224]
cell viability [1]: 102 ± 2.2% | cell viability [2]: 104 ± 2.2% | cell viability [3]: 114 ± 13% | cell viability [4]: 101 ± 1.9% | cell viability [5]: 101 ± 5.6% | cell viability [6]: 103 ± 7.6% | cell viability [7]: 113 ± 31% | cell viability [8]: 108 ± 0.28% | cell viability [9]: 100 ± 1.5% | cell viability [10]: 102 ± 6.9% | cell viability [11]: 96.8 ± 5.5% | cell viability [12]: 102 ± 9.6% | cell viability [13]: 99.416 ± 0.052% | cell viability [14]: 101 ± 1.8% | cell viability [15]: 96.3 ± 3.7% | cell viability [16]: 103 ± 1.8% | cell viability [17]: 95.6 ± 0.11% | cell viability [18]: 93.3 ± 4.4% | cell viability [19]: 91.9 ± 6.9% | cell viability [20]: 74.8 ± 9.6%

CC(C)C[C@H](NC(=O)[C@@H](O)[C@H](N)Cc1ccccc1)C(=O)O [Ubenimex]
cell viability [1]: 101 ± 4.3% | cell viability [2]: 104 ± 3.4% | cell viability [3]: 102 ± 3.6% | cell viability [4]: 99.1 ± 1.1% | cell viability [5]: 101 ± 11% | cell viability [6]: 103 ± 1.4% | cell viability [7]: 95.6 ± 11% | cell viability [8]: 93.2 ± 11% | cell viability [9]: 99.3 ± 9.9% | cell viability [10]: 102 ± 3.4% | cell viability [11]: 107 ± 2% | cell viability [12]: 104 ± 7.1% | cell viability [13]: 98.1 ± 2.2% | cell viability [14]: 97.6 ± 5.8% | cell viability [15]: 94 ± 4.7% | cell viability [16]: 79.3 ± 1.4% | cell viability [17]: 106 ± 2% | cell viability [18]: 95.3 ± 1.6% | cell viability [19]: 103 ± 5.7% | cell viability [20]: 98.8 ± 3.3%

O=P(O)(O)C(O)(Cn1ccnc1)P(=O)(O)O [Zoledronic acid]
cell viability [1]: 102 ± 2.9% | cell viability [2]: 98.3 ± 11% | cell viability [3]: 91.7 ± 49% | cell viability [4]: 81.3 ± 24% | cell viability [5]: 101 ± 2.4% | cell viability [6]: 99.8 ± 2.5% | cell viability [7]: 92.3 ± 6.2% | cell viability [8]: 98.9 ± 1.2% | cell viability [9]: 102 ± 2.3% | cell viability [10]: 101 ± 1.7% | cell viability [11]: 95.8 ± 4.7% | cell viability [12]: 100 ± 9.7% | cell viability [13]: 101 ± 2.5% | cell viability [14]: 105.3 ± 0.2% | cell viability [15]: 103 ± 14% | cell viability [16]: 108 ± 12% | cell viability [17]: 98 ± 3.6% | cell viability [18]: 101 ± 5.2% | cell viability [19]: 80 ± 26% | cell viability [20]: 98 ± 7.6%
